Experiments:
[1] = tested on: Candida albicans MTU 12021; test: Agar dilution MIC, single and combined use; type: cell-based; settings: Candida albicans, MTU12021; single use; Sabouraud agar, 37° C., 48 hours; read-out: Minimum Inhibitory Concentration (MIC)
Method: (1) The effects of the combined use of Compound 1 with various imidazole antifungal agents against Candida albicans MTU 12021 strain were examined as follows. […] Then, distilled water containing 0.1% by weight of Tween 80 was added thereto to obtain drug solutions having a concentration of from 1 to 1,000 μg/ml.
(§1) 1 ml of each drug solution diluted twice was introduced into a sterilized Petri dish, and 8 ml of Sabouraud agar medium was added to prepare a agar plate. Thus, a series of agar plates for the combinations having various concentrations were prepared.
(§2) Candida albicans MTU 12021 strain cultured on a Sabouraud agar medium for 24 hours, was suspended in a saline, and a cells suspension having a concentration of 2×10^6 spores/ml was prepared by counting the number of spores by a hemacytometer. Then, 50 μl of the cells suspension was inoculated to the above agar plates by means of a microplanter (manufactured by Sakuma Seisakusho). The inoculated agar plates were cultured at 37° C. for 48 hours, whereupon the presence or absence of the growth of the strain was examined.
(§3) Culture medium: Sabouraud agar medium
(§4) Culturing condition: 37° C. for 48 hours
(§5) Strain used: Candida albicans MTU 12021

[2] = tested on: Candida albicans MTU 12021; test: Checker board method, combined use of Compound 1 with miconazole or ketoconazole; type: cell-based; further: key: +: Growth observed; -: No growth observed
Method: as §1, §2, §3, §4, §5

[3] = tested on: Candida albicans MTU 12021; test: Influence of combined use of Compound 1 with miconazole over the growth curve; type: cell-based; settings: 24 and 48 hours, FIG. 1
Method: Upon expiration of 24 hours and 48 hours, 0.1 ml of the culture medium was sampled and spread on a Sabouraud agar plate containing 0.5% of yeast extract, followed by culturing at 37° C. for 48 hours. Then, the number of colonies were counted to determine the number of survived fungi.

[4] = tested on: Candida albicans MTU 12021; test: Disk method (growth inhibition ring); type: cell-based
Method: (3) The effects of the combined use of Compound 1 with miconazole or ketoconazole were examined by a disk method.
Candida albicans MTU 12021 stain was mixed with a Sabouraud agar medium to have a concentration of 5×10^4 spores/ml, and 10 ml thereof was poured into a sterilized Petri dish to obtain an inoculated agar plate.
50 mg of each of Compound 1, miconazole and ketoconazole was impregnated to a disk (Toyo Filter paper of 8 mm in diameter), and the disk was placed on the inoculated agar plate, followed by culturing at 37° C. for 96 hours, whereupon the synergistic effects were evaluated based on the growth inhibition ring thereby appeared.

ICR male mice = test: Acute toxicity, oral, mice; type: in vivo; settings: up to 5,000 mg/kg, ICR male mice of 5 weeks old
Description: To examine the acute toxicity of the arylmethylamine antifungal agents used in the composition of the present invention, Compounds 1 and 2 were selected, and they were, respectively, suspended in 0.5% methyl cellulose and orally administered to ICR male mice of 5 weeks old (body weight: 26-28 g) at a dose corresponding to the body weight.

[5] = tested on: Candida albicans MTU 12021; test: Agar dilution MIC, single and combined use; type: cell-based; settings: Compound 1 combined with non-azole agents; Table 4

For `CN(Cc1ccc(C(C)(C)C)cc1)Cc1cccc2ccccc12` [Compound 1, N-4-tert-butylbenzyl-N-methyl-1-naphthalenemethylamine], the MIC [1] was greater than 100 µg/mL, the Growth ([2]; Compound 1 0.39 μg/ml, ketoconazole 0) was “+” and the Growth ([2]; Compound 1 0.78 μg/ml, ketoconazole 0) was “+”. The Growth ([2]; Compound 1 1.56 μg/ml, ketoconazole 0) was “+”, the Growth ([2]; Compound 1 3.13 μg/ml, ketoconazole 0) was “+” and the Growth ([2]; Compound 1 3.13 μg/ml, miconazole 0) was “+”. For the same molecule, the Growth ([2]; Compound 1 12.5 μg/ml, ketoconazole 0) was “+”, the Growth ([2]; Compound 1 12.5 μg/ml, miconazole 0) was “+” and the Growth ([2]; Compound 1 25 μg/ml, ketoconazole 0) was “+”. For the same molecule, the Growth ([2]; Compound 1 25 μg/ml, miconazole 0) was “+”, the Growth ([2]; Compound 1 50 μg/ml, ketoconazole 0) was “+” and the Growth ([2]; Compound 1 50 μg/ml, miconazole 0) was “+”. The Growth ([2]; Compound 1 100 μg/ml, ketoconazole 0) was “+”, the Growth ([2]; Compound 1 100 μg/ml, miconazole 0) was “+” and the Growth ([2]; Compound 1 0.39 + ketoconazole 0.1 μg/ml) was “+”. The Growth ([2]; Compound 1 0.39 + ketoconazole 0.2 μg/ml) was “+”, the Growth ([2]; Compound 1 0.39 + ketoconazole 0.39 μg/ml) was “+” and the Growth ([2]; Compound 1 0.39 + ketoconazole 0.78 μg/ml) was “+”. For the same molecule, the Growth ([2]; Compound 1 0.39 + ketoconazole 1.56 μg/ml) was “+”, the Growth ([2]; Compound 1 0.39 + ketoconazole 3.13 μg/ml) was “+” and the Growth ([2]; Compound 1 0.39 + ketoconazole 12.5 μg/ml) was “+”. For the same molecule, the Growth ([2]; Compound 1 0.39 + ketoconazole 25 μg/ml) was “-”, the Growth ([2]; Compound 1 0.39 + ketoconazole 50 μg/ml) was “-” and the Growth ([2]; Compound 1 0.39 + ketoconazole 100 μg/ml) was “-”. For the same molecule, the Growth ([2]; Compound 1 0.78 + ketoconazole 0.1 μg/ml) was “+”, the Growth ([2]; Compound 1 0.78 + ketoconazole 25 μg/ml) was “-” and the Growth ([2]; Compound 1 0.78 + ketoconazole 50 μg/ml) was “-”. For the same molecule, the Growth ([2]; Compound 1 0.78 + ketoconazole 100 μg/ml) was “-”, the Growth ([2]; Compound 1 1.56 + ketoconazole 0.1 μg/ml) was “+” and the Growth ([2]; Compound 1 1.56 + ketoconazole 25 μg/ml) was “-”. For the same molecule, the Growth ([2]; Compound 1 1.56 + ketoconazole 50 μg/ml) was “-”, the Growth ([2]; Compound 1 1.56 + ketoconazole 100 μg/ml) was “-” and the Growth ([2]; Compound 1 3.13 + ketoconazole 0.1 μg/ml) was “+”. For the same molecule, the Growth ([2]; Compound 1 3.13 + ketoconazole 25 μg/ml) was “-”, the Growth ([2]; Compound 1 3.13 + ketoconazole 50 μg/ml) was “-” and the Growth ([2]; Compound 1 3.13 + ketoconazole 100 μg/ml) was “-”. For the same molecule, the Growth ([2]; Compound 1 3.13 + miconazole 0.39 μg/ml) was “+”, the Growth ([2]; Compound 1 3.13 + miconazole 0.78 μg/ml) was “+” and the Growth ([2]; Compound 1 3.13 + miconazole 1.56 μg/ml) was “+”. The Growth ([2]; Compound 1 3.13 + miconazole 3.13 μg/ml) was “+”, the Growth ([2]; Compound 1 3.13 + miconazole 12.5 μg/ml) was “+” and the Growth ([2]; Compound 1 3.13 + miconazole 25 μg/ml) was “+”. The Growth ([2]; Compound 1 3.13 + miconazole 50 μg/ml) was “-”, the Growth ([2]; Compound 1 3.13 + miconazole 100 μg/ml) was “-” and the Growth ([2]; Compound 1 6.25 + ketoconazole 0.1 μg/ml) was “+”. The Growth ([2]; Compound 1 6.25 + ketoconazole 25 μg/ml) was “-”, the Growth ([2]; Compound 1 6.25 + ketoconazole 50 μg/ml) was “-” and the Growth ([2]; Compound 1 6.25 + ketoconazole 100 μg/ml) was “-”. The Growth ([2]; Compound 1 6.25 + miconazole 0.39 μg/ml) was “+”, the Growth ([2]; Compound 1 6.25 + miconazole 0.78 μg/ml) was “+” and the Growth ([2]; Compound 1 6.25 + miconazole 1.56 μg/ml) was “+”. For the same molecule, the Growth ([2]; Compound 1 6.25 + miconazole 3.13 μg/ml) was “+”, the Growth ([2]; Compound 1 6.25 + miconazole 12.5 μg/ml) was “+” and the Growth ([2]; Compound 1 6.25 + miconazole 25 μg/ml) was “+”. The Growth ([2]; Compound 1 6.25 + miconazole 50 μg/ml) was “-”, the Growth ([2]; Compound 1 6.25 + miconazole 100 μg/ml) was “-” and the Growth ([2]; Compound 1 12.5 + ketoconazole 0.1 μg/ml) was “+”. For the same molecule, the Growth ([2]; Compound 1 12.5 + ketoconazole 25 μg/ml) was “-”, the Growth ([2]; Compound 1 12.5 + ketoconazole 50 μg/ml) was “-” and the Growth ([2]; Compound 1 12.5 + ketoconazole 100 μg/ml) was “-”. For the same molecule, the Growth ([2]; Compound 1 12.5 + miconazole 0.39 μg/ml) was “+”, the Growth ([2]; Compound 1 12.5 + miconazole 0.78 μg/ml) was “+” and the Growth ([2]; Compound 1 12.5 + miconazole 50 μg/ml) was “-”. For the same molecule, the Growth ([2]; Compound 1 12.5 + miconazole 100 μg/ml) was “-”, the Growth ([2]; Compound 1 25 + ketoconazole 0.1 μg/ml) was “+” and the Growth ([2]; Compound 1 25 + ketoconazole 25 μg/ml) was “-”. For the same molecule, the Growth ([2]; Compound 1 25 + ketoconazole 50 μg/ml) was “-”, the Growth ([2]; Compound 1 25 + ketoconazole 100 μg/ml) was “-” and the Growth ([2]; Compound 1 25 + miconazole 0.39 μg/ml) was “+”. For the same molecule, the Growth ([2]; Compound 1 25 + miconazole 0.78 μg/ml) was “+”, the Growth ([2]; Compound 1 25 + miconazole 50 μg/ml) was “-” and the Growth ([2]; Compound 1 25 + miconazole 100 μg/ml) was “-”. For the same molecule, the Growth ([2]; Compound 1 50 + ketoconazole 0.1 μg/ml) was “+”, the Growth ([2]; Compound 1 50 + ketoconazole 25 μg/ml) was “-” and the Growth ([2]; Compound 1 50 + ketoconazole 50 μg/ml) was “-”. The Growth ([2]; Compound 1 50 + ketoconazole 100 μg/ml) was “-”, the Growth ([2]; Compound 1 50 + miconazole 0.39 μg/ml) was “+” and the Growth ([2]; Compound 1 50 + miconazole 0.78 μg/ml) was “+”. For the same molecule, the Growth ([2]; Compound 1 50 + miconazole 50 μg/ml) was “-”, the Growth ([2]; Compound 1 50 + miconazole 100 μg/ml) was “-” and the Growth ([2]; Compound 1 100 + ketoconazole 0.1 μg/ml) was “+”. For the same molecule, the Growth ([2]; Compound 1 100 + ketoconazole 25 μg/ml) was “-”, the Growth ([2]; Compound 1 100 + ketoconazole 50 μg/ml) was “-” and the Growth ([2]; Compound 1 100 + ketoconazole 100 μg/ml) was “-”. For the same molecule, the Growth ([2]; Compound 1 100 + miconazole 0.39 μg/ml) was “+”, the Growth ([2]; Compound 1 100 + miconazole 0.78 μg/ml) was “+” and the Growth ([2]; Compound 1 100 + miconazole 50 μg/ml) was “-”. The Growth ([2]; Compound 1 100 + miconazole 100 μg/ml) was “-”, the “influence over growth curve” value [3] was “fungistatic or fungicidal effects were enhanced” and the “effect of combined use with miconazole on inhibitory ring” value ([4]; Compound 1 disk on periphery of incomplete inhibitory ring of miconazole disk, FIG. 2) was “a portion of the incomplete inhibitory ring is completely inhibited”. The “effects of combined use, Compound 1 with ketoconazole” value ([4]; FIG. 3) was “remarkable effects of the combined use”, the death (ICR male mice) was “no instance of death” and the “synergistic effects of combined use with non-azole antifungal agents” value [5] was “no synergistic effects were observed”.
